# Assay results published in PubChem BioAssay AID256 (DTP/NCI, 2004).
# “And” between values parts separate entries of the source, which are not always exact repeats. Equal entries are not always repeated. Inconclusive results and toxic doses are left out.
# Test system: CD2F1 mice, L1210 leukemia ip, survival T/C
# Test: NCI In Vivo Anticancer Drug Screen. Data for tumor model L1210 Leukemia (intraperitoneal) in CD2F1 (CDF1) mice
# Details: higher = longer survival
# How it was run: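 Ratio T/C, where T is the treated-group value and C the vehicle-dosed control value, from mice implanted with a transplantable tumor.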
compound,measurement,setting,value
O=c1n(CC2CO2)c(=O)n(CC2CO2)n1CC1CO1 (configuration not stated),T/C,"endpoint: median survival time, dose: 1.5 mg/kg/injection, schedule: Q01DX009 (ip), vehicle: saline",113 % of control
same,T/C,"endpoint: median survival time, dose: 1.5 mg/kg/injection, schedule: Q03HX024 (ip), vehicle: saline",121 % of control
same,T/C,"endpoint: median survival time, dose: 3.0 mg/kg/injection, schedule: Q03HX024 (ip), vehicle: saline",195 % of control
same,T/C,"endpoint: median survival time, dose: 6.0 mg/kg/injection, schedule: Q01DX009 (ip), vehicle: saline",182 % of control
same,T/C,"endpoint: median survival time, dose: 6.0 mg/kg/injection, schedule: Q03HX024 (ip), vehicle: saline",253 % of control
same,T/C,"endpoint: median survival time, dose: 6.25 mg/kg/injection, schedule: Q01DX009 (ip), vehicle: saline",168 % of control and 277 % of control
same,T/C,"endpoint: median survival time, dose: 7.5 mg/kg/injection, schedule: Q01DX003 (iv), vehicle: saline",107 % of control
same,T/C,"endpoint: median survival time, dose: 7.5 mg/kg/injection, schedule: Q01DX005 (ip), vehicle: saline",151 % of control
same,T/C,"endpoint: median survival time, dose: 10.0 mg/kg/injection, schedule: Q01DX005 (ip), vehicle: saline",192 % of control
same,T/C,"endpoint: median survival time, dose: 12.0 mg/kg/injection, schedule: Q01DX009 (ip), vehicle: saline",365 % of control
same,T/C,"endpoint: median survival time, dose: 12.0 mg/kg/injection, schedule: Q03HX008 (ip), vehicle: saline",86 % of control
same,T/C,"endpoint: median survival time, dose: 12.0 mg/kg/injection, schedule: Q03HX024 (ip), vehicle: saline",106 % of control
same,T/C,"endpoint: median survival time, dose: 12.5 mg/kg/injection, schedule: Q01DX009 (ip), vehicle: saline",231 % of control and 277 % of control
same,T/C,"endpoint: median survival time, dose: 15.0 mg/kg/injection, schedule: Q01DX005 (ip), vehicle: saline",210 % of control and 240 % of control
same,T/C,"endpoint: median survival time, dose: 15.0 mg/kg/injection, schedule: Q04DX003 (ip), vehicle: saline",182 % of control
same,T/C,"endpoint: median survival time, dose: 15.0 mg/kg/injection, schedule: Q08DX002 (ip), vehicle: saline",159 % of control
same,T/C,"endpoint: median survival time, dose: 24.0 mg/kg/injection, schedule: Q01DX009 (ip), vehicle: saline",365 % of control
same,T/C,"endpoint: median survival time, dose: 25.0 mg/kg/injection, schedule: Q01DX001 (iv), vehicle: saline",120 % of control
same,T/C,"endpoint: median survival time, dose: 25.0 mg/kg/injection, schedule: Q01DX009 (ip), vehicle: saline",121 % of control and 277 % of control
same,T/C,"endpoint: median survival time, dose: 30.0 mg/kg/injection, schedule: Q01DX001 (ip), vehicle: saline",195 % of control
same,T/C,"endpoint: median survival time, dose: 30.0 mg/kg/injection, schedule: Q01DX003 (iv), vehicle: saline",171 % of control
same,T/C,"endpoint: median survival time, dose: 30.0 mg/kg/injection, schedule: Q01DX005 (ip), vehicle: saline",92 % of control
same,T/C,"endpoint: median survival time, dose: 30.0 mg/kg/injection, schedule: Q04DX003 (ip), vehicle: saline",731 % of control
same,T/C,"endpoint: median survival time, dose: 30.0 mg/kg/injection, schedule: Q08DX002 (ip), vehicle: saline",198 % of control
same,T/C,"endpoint: median survival time, dose: 40.0 mg/kg/injection, schedule: Q01DX001 (ip), vehicle: saline",186 % of control
same,T/C,"endpoint: median survival time, dose: 40.0 mg/kg/injection, schedule: Q04DX003 (ip), vehicle: saline",292 % of control
same,T/C,"endpoint: median survival time, dose: 40.0 mg/kg/injection, schedule: Q08DX002 (ip), vehicle: saline",256 % of control
same,T/C,"endpoint: median survival time, dose: 48.0 mg/kg/injection, schedule: Q01DX009 (ip), vehicle: saline",106 % of control
same,T/C,"endpoint: median survival time, dose: 50.0 mg/kg/injection, schedule: Q01DX001 (iv), vehicle: saline",157 % of control
same,T/C,"endpoint: median survival time, dose: 50.0 mg/kg/injection, schedule: Q08DX002 (ip), vehicle: saline",731 % of control
same,T/C,"endpoint: median survival time, dose: 60.0 mg/kg/injection, schedule: Q01DX001 (ip), vehicle: saline",731 % of control
same,T/C,"endpoint: median survival time, dose: 60.0 mg/kg/injection, schedule: Q01DX005 (oral), vehicle: saline",182 % of control
same,T/C,"endpoint: median survival time, dose: 80.0 mg/kg/injection, schedule: Q01DX001 (ip), vehicle: saline",97 % of control
same,T/C,"endpoint: median survival time, dose: 80.0 mg/kg/injection, schedule: Q01DX001 (iv), vehicle: saline",89 % of control
same,T/C,"endpoint: median survival time, dose: 160.0 mg/kg/injection, schedule: Q01DX001 (oral), vehicle: saline",175 % of control
same,T/C,"endpoint: median survival time, dose: 240.0 mg/kg/injection, schedule: Q01DX001 (oral), vehicle: saline",97 % of control
c1ccc2c(CC3=NCCN3)cccc2c1,T/C,"endpoint: mean survival time, dose: 12.5 mg/kg/injection, schedule: Q04DX003 (ip), vehicle: saline with Tween-80",98 % of control
same,T/C,"endpoint: mean survival time, dose: 50.0 mg/kg/injection, schedule: Q04DX003 (ip), vehicle: saline with Tween-80",88 % of control
same,T/C,"endpoint: mean survival time, dose: 50.0 mg/kg/injection, schedule: Q04DX003 (ip), vehicle: saline",102 % of control
COC(=O)N1CC=CCN1C(=O)OC,T/C,"endpoint: mean survival time, dose: 100.0 mg/kg/injection, schedule: Q01DX009 (ip), vehicle: saline",105 % of control
same,T/C,"endpoint: mean survival time, dose: 200.0 mg/kg/injection, schedule: Q01DX009 (ip), vehicle: saline",108 % of control
same,T/C,"endpoint: mean survival time, dose: 400.0 mg/kg/injection, schedule: Q01DX009 (ip), vehicle: saline",102 % of control
